System: HCV replicon
Test: HCV replicon luciferase reporter assay
Type: cell-based
Settings: Hepatitis C virus, Table 5; read-out: IC50
Method in brief: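 IC50 is the compound amount halving luciferase signal, measured after 24–48 h treatment at various concentrations. Cells carrying the HCV replicon were pre-incubated 24 h at 37° C, 5% CO2 after seeding at about 5,000–7,500 cells/well before dosing.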

| SMILES | IC50 |
| --- | --- |
| O=C(NCCNc1nsc2ccccc12)c1ccccn1 [Entry 25, N-(2-(Benzo[d]isothiazol-3-ylamino)ethyl)picolinamide] | < 5 µM |
| O=C(NCCNc1nsc2ccccc12)c1cccc(Br)n1 [Entry 27, N-(2-(Benzo[d]isothiazol-3-ylamino)ethyl)-6-bromopicolinamide] | > 5 µM |
| O=C(NCCNc1nsc2ccccc12)c1cccc(Cl)c1 [Entry 33, N-(2-(Benzo[d]isothiazol-3-ylamino)ethyl)-3-chlorobenzamide] | > 5 µM |
| O=C(NCCNc1nsc2ccccc12)c1c(Cl)cccc1Cl [Entry 41, N-(2-(Benzo[d]isothiazol-3-ylamino)ethyl)-2,6-dichlorobenzamide] | > 5 µM |
| O=C(CC1CC1)NCCNc1nsc2ccccc12 [Entry 71, N-(2-(Benzo[d]isothiazol-3-ylamino)ethyl)-2-cyclopropylacetamide] | > 5 µM |
| O=C(NCCNc1nsc2ccccc12)C1CCCNC1 (stereo not drawn) [Entry 73, N-(2-(Benzo[d]isothiazol-3-ylamino)ethyl)piperidine-3-carboxamide] | > 5 µM |
| N[C@H](C(=O)NCCNc1nsc2ccccc12)c1ccccc1 [Entry 74, (S)-2-Amino-N-(2-(benzo[d]isothiazol-3-ylamino)ethyl)-2-phenylacetamide] | > 5 µM |
| CC(C)[C@H](N)C(=O)NCCNc1nsc2ccccc12 [Entry 75, (S)-2-Amino-N-(2-(benzo[d]isothiazol-3-ylamino)ethyl)-3-methylbutanamide] | > 5 µM |
| Cc1cccnc1C(=O)NCCNc1nsc2ccccc12 [Entry 76, N-(2-(Benzo[d]isothiazol-3-ylamino)ethyl)-3-methylpicolinamide] | < 5 µM |
| COC(=O)c1ccc(C(=O)NCCNc2nsc3ccccc23)nc1 [Entry 77, Methyl 6-(2-(Benzo[d]isothiazol-3-ylamino)ethylcarbamoyl)nicotinate] | > 5 µM |
| O=C(O)c1ccc(C(=O)NCCNc2nsc3ccccc23)nc1 [Entry 78, 6-(2-(Benzo[d]isothiazol-3-ylamino)ethylcarbamoyl)nicotinic Acid] | > 5 µM |
| O=C(NCCNc1nsc2ccccc12)c1ccc2ccccc2n1 [Entry 79, N-(2-(Benzo[d]isothiazol-3-ylamino)ethyl)quinoline-2-carboxamide] | > 5 µM |
| COC(=O)c1cccc(C(=O)NCCNc2nsc3ccccc23)n1 [Entry 80, Methyl 6-(2-(Benzo[d]isothiazol-3-ylamino)ethylcarbamoyl)picolinate] | > 5 µM |
| O=C(O)c1cccc(C(=O)NCCNc2nsc3ccccc23)n1 [Entry 81, 6-(2-(Benzo[d]isothiazol-3-ylamino)ethylcarbamoyl)picolinic Acid] | > 5 µM |
| O=C(Cc1c[nH]c2ccccc12)NCCNc1nsc2ccccc12 [Entry 82, N-(2-(Benzo[d]isothiazol-3-ylamino)ethyl)-2-(1H-indol-3-yl)acetamide] | > 5 µM |
| COc1cccc(S(=O)(=O)NCCCNc2nsc3ccccc23)c1 [Entry 220, N-(3-(benzo[d]isothiazol-3-ylamino)propyl)-3-methoxybenzenesulfonamide] | < 5 µM |
| O=S(=O)(NCCCNc1nsc2ccccc12)c1cc(F)c(Br)cc1F [Entry 221, N-(3-(benzo[d]isothiazol-3-ylamino)propyl)-4-bromo-2,5-difluorobenzenesulfonamide] | < 5 µM |
| O=S(=O)(NCCCNc1nsc2ccccc12)c1ccc(Br)s1 [Entry 222, N-(3-(benzo[d]isothiazol-3-ylamino)propyl)-5-bromothiophene-2-sulfonamide] | < 5 µM |

| SMILES | IC50 |
| --- | --- |
| O=S(=O)(NCCCNc1nsc2ccccc12)c1ccc(Oc2ccc(Cl)cc2)cc1 [Entry 223, N-(3-(benzo[d]isothiazol-3-ylamino)propyl)-4-(4-chlorophenoxy)benzenesulfonamide] | < 5 µM |
| N#Cc1ccc(NCCCNc2nsc3ccccc23)nc1 [Entry 224, 6-(3-(benzo[d]isothiazol-3-ylamino)propylamino)pyridine-3-carbonitrile] | < 5 µM |
| COC(=O)c1cnc(NCCCNc2nsc3ccccc23)nc1C(F)(F)F [Entry 225, methyl 2-(3-(benzo[d]isothiazol-3-ylamino)propylamino)-4-(trifluoromethyl)pyrimidine-5-carboxylate] | < 5 µM |
| Clc1ccc(NCCCNc2nsc3ccccc23)nc1 [Entry 226, N-(3-(5-chloropyridin-2-ylamino)propyl)benzo[d]isothiazol-3-amine] | < 5 µM |
| Cc1ccnc(NCCCNc2nsc3ccccc23)c1 [Entry 227, N-(3-(4-methylpyridin-2-ylamino)propyl)benzo[d]isothiazol-3-amine] | < 5 µM |
| FC(F)(F)c1ccc(NCCCNc2nsc3ccccc23)nc1 [Entry 228, N-(3-(5-(trifluoromethyl)pyridin-2-ylamino)propyl)benzo[d]isothiazol-3-amine] | < 5 µM |
| N#Cc1ccnc(NCCCNc2nsc3ccccc23)c1 [Entry 229, 2-(3-(benzo[d]isothiazol-3-ylamino)propylamino)pyridine-4-carbonitrile] | < 5 µM |
| Clc1cccc(NCCCNc2nsc3ccccc23)n1 [Entry 230, N^1-(benzo[d]isothiazol-3-yl)-N^3-(6-chloropyridin-2-yl)propane-1,3-diamine] | < 5 µM |
| FC(F)(F)c1ccnc(NCCCNc2nsc3ccccc23)c1 [Entry 231, N^1-(benzo[d]isothiazol-3-yl)-N^3-(4-(trifluoromethyl)pyridin-2-yl)propane-1,3-diamine] | < 5 µM |
| O=C(NCCCNc1nsc2ccccc12)c1cccc(OCC(O)CN2CCOCC2)c1 (stereo not drawn) [Entry 232, N-(3-(benzo[d]isothiazol-3-ylamino)propyl)-3-(2-hydroxy-3-morpholinopropoxy)benzamide] | < 5 µM |
| COc1cccc(N2CCN(CC(O)COc3cccc(C(=O)NCCCNc4nsc5ccccc45)c3)CC2)c1 (stereo not drawn) [Entry 233, N-(3-(benzo[d]isothiazol-3-ylamino)propyl)-3-(2-hydroxy-3-(4-(3-methoxyphenyl)piperazin-1-yl)propoxy)benzamide] | < 5 µM |
| O=C(NCCCNc1nsc2ccccc12)c1ccc(F)cc1 [Entry 234, N-(3-(benzo[d]isothiazol-3-ylamino)propyl)-4-fluorobenzamide] | < 5 µM |
| O=C(NCCCNc1nsc2ccccc12)c1ccc(OCc2ccncc2)cc1 [Entry 235, N-(3-(benzo[d]isothiazol-3-ylamino)propyl)-4-(pyridin-4-ylmethoxy)benzamide] | < 5 µM |
| COc1cccc(COc2ccc(C(=O)NCCCNc3nsc4ccccc34)cc2)c1 [Entry 236, N-(3-(benzo[d]isothiazol-3-ylamino)propyl)-4-(3-methoxybenzyloxy)benzamide] | < 5 µM |
| COc1ccc(COc2ccc(C(=O)NCCCNc3nsc4ccccc34)cc2)cc1OC [Entry 237, N-(3-(benzo[d]isothiazol-3-ylamino)propyl)-4-(3,4-dimethoxybenzyloxy)benzamide] | < 5 µM |
| O=C(O)COc1ccc(C(=O)NCCCNc2nsc3ccccc23)cc1 [Entry 238, 2-(4-(3-(benzo[d]isothiazol-3-ylamino)propylcarbamoyl)phenoxy) acetic acid] | > 5 µM |
| CN(CCCNc1nsc2ccccc12)S(=O)(=O)c1ccccc1C(F)(F)F [Entry 240, N-(3-(benzo[d]isothiazol-3-ylamino)propyl)-N-methyl-2-(trifluoromethyl)benzenesulfonamide] | < 5 µM |
| COc1ccc(-c2ccc(CNCCCNc3nsc4nccnc34)cc2)cc1 [Entry 241, N^1-(isothiazolo[5,4-b]pyrazin-3-yl)-N^3-((4′-methoxybiphenyl-4-yl)methyl)propane-1,3-diamine] | < 5 µM |

Source: patent US7776847B2, “Benzisothiazoles useful for treating or preventing HCV infection” (priority 2005, dated 2010)
